In brackets after ≈: the same amount, converted by molar mass.
Legend:
[1] = Bioavailability on oral administration; settings: in vivo, orally administered, read-out: bioavailability (BA)
N-type calcium channel = N-type calcium channel (Homo sapiens, UniProt Q00975); settings: refer to Patent Document 1; cited from earlier work
CYP3A4 = CYP3A4 (Homo sapiens, UniProt P08684); experiment: Metabolism by metabolic enzyme
Solubility in water = format: physicochemical; settings: crystals of compound (I) vs spray-dried amorphous powder with HPMCAS

Sequence of CYP3A4 (P08684 whole entry): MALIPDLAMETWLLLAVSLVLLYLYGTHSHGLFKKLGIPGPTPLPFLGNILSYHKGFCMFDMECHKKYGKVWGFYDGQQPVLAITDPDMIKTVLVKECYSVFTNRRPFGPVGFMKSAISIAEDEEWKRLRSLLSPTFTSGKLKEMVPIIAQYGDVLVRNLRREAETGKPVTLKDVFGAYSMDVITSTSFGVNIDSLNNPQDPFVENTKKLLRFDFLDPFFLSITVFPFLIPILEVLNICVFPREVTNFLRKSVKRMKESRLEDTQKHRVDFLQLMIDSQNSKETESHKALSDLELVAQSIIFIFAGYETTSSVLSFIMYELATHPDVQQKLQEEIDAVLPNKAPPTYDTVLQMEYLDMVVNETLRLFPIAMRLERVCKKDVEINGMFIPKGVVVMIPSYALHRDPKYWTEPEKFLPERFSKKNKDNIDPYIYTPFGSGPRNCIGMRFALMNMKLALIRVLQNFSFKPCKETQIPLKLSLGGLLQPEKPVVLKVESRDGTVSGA
Sequence of N-type calcium channel (Q00975 whole entry): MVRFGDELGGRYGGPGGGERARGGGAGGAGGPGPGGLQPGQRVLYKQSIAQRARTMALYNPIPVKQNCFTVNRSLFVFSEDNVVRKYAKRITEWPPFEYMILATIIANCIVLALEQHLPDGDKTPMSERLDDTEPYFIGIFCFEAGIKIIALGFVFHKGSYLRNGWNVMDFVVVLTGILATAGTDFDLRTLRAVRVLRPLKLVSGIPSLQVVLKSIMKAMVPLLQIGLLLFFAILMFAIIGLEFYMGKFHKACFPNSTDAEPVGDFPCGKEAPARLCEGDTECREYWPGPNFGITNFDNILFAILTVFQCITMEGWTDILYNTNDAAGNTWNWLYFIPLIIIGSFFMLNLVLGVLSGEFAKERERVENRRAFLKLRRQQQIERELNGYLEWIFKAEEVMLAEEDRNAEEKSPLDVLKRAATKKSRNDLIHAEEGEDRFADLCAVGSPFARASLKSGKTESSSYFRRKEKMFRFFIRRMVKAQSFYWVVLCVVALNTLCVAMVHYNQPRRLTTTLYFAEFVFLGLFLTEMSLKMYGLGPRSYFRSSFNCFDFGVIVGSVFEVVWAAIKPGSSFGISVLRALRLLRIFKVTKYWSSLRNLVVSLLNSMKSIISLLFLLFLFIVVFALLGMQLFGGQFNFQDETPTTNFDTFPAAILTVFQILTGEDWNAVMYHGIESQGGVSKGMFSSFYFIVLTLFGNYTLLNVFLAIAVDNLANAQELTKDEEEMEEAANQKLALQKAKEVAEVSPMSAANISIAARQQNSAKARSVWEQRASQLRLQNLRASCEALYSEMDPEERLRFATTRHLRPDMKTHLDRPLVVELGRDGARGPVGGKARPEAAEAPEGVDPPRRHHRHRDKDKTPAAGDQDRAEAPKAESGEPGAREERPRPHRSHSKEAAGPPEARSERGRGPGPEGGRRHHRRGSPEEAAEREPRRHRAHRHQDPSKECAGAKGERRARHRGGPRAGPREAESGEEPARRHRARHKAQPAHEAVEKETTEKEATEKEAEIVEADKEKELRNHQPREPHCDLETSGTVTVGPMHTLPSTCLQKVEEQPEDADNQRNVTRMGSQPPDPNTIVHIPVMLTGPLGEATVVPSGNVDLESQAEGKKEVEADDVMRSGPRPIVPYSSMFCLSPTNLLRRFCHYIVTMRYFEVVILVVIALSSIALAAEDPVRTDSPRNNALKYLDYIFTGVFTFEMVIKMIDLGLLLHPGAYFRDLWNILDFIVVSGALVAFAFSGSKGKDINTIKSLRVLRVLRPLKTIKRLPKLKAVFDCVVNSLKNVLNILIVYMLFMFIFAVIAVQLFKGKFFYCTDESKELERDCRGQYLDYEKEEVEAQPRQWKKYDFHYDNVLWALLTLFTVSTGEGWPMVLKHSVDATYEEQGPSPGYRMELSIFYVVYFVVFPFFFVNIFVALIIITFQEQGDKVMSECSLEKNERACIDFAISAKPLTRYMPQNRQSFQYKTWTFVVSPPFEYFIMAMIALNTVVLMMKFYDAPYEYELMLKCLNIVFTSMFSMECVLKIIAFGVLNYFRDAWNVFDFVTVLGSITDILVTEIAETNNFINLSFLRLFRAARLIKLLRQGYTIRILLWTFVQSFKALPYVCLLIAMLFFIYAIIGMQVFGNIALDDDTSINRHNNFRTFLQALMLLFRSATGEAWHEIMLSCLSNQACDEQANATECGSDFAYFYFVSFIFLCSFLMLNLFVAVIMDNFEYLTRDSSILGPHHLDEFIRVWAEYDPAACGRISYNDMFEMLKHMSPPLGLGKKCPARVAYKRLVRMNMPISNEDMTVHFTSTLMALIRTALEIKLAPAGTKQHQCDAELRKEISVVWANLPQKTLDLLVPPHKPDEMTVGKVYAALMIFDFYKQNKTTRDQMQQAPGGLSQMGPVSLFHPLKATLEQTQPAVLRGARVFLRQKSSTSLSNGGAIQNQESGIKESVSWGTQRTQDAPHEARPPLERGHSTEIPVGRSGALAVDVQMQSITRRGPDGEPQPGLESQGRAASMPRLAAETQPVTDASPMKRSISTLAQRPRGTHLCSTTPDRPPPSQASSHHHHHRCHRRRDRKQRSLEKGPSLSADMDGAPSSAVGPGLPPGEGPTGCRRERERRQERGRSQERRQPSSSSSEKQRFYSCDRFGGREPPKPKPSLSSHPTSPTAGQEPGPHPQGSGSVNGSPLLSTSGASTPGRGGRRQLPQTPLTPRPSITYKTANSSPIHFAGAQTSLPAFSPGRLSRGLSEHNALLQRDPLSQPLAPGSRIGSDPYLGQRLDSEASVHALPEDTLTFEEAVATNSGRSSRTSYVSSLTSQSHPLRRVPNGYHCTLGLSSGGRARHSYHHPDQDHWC

For `CC(C)(C)OC(=O)N1CSC[C@H]1C(=O)N[C@@H](CSCC1CCCCC1)C(=O)NC1CCN(Cc2ccccc2)CC1` [compound (I), (2R)—N-(1-benzylpiperidin-4-yl)-3-cyclohexylmethylthio-2-[(4R)-3-tert-butoxycarbonylthiazolidin-4-ylcarbonylamino]propaneamide], the bioavailability [1] is given as about 0.2%, the “N-type calcium channel inhibiting activity” value (N-type calcium channel) is given as “N-type calcium channel inhibiting activity” and the metabolic enzyme (CYP3A4) is given as “metabolized by CYP3A4”. For the same molecule, the solubility (Solubility in water) was about 1.25 µg/mL (≈ 2.07 µM).
